Measurements: PubChem BioAssay (NCI)
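Following 48 hours of exposure in 96-well plates, responses at five concentrations were used to interpolate endpoints linearly. At the GI50, growth is halved. Definition used: TGI = concentration required for complete inhibition of growth.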

Key:
Assay in all cases: inhibition of tumour cell growth, NCI panel, 48 h
[1] = test system: 786-0 renal
[2] = test system: A498 renal
[3] = test system: A549 NSCLC
[4] = test system: BT-549 breast
[5] = test system: COLO 205 colon
[6] = test system: DU-145 prostate
[7] = test system: EKVX NSCLC
[8] = test system: HCC-2998 colon
[9] = test system: HCT-116 colon
[10] = test system: HCT-15 colon
[11] = test system: HOP-62 NSCLC
[12] = test system: HOP-92 NSCLC
[13] = test system: HS 578T breast
[14] = test system: HT29 colon
[15] = test system: IGROV1 ovarian
[16] = test system: K-562 leukemia
[17] = test system: KM12 colon
[18] = test system: LOX IMVI melanoma
[19] = test system: M14 melanoma
[20] = test system: MALME-3M melanoma
[21] = test system: MCF7 breast
[22] = test system: MDA-MB-231 breast
[23] = test system: MDA-MB-435
[24] = test system: NCI-H226 lung
[25] = test system: NCI-H460 lung
[26] = test system: NCI-H522 lung
[27] = test system: NCI/ADR-RES ovarian
[28] = test system: OVCAR-4 ovarian
[29] = test system: OVCAR-5 ovarian
[30] = test system: OVCAR-8 ovarian
[31] = test system: PC-3 prostate
[32] = test system: RPMI-8226 leukemia
[33] = test system: SF-268 CNS
[34] = test system: SF-295 CNS
[35] = test system: SF-539 CNS
[36] = test system: SK-MEL-2 melanoma
[37] = test system: SK-MEL-28 melanoma
[38] = test system: SK-MEL-5 melanoma
[39] = test system: SK-OV-3 ovarian
[40] = test system: SN12C renal
[41] = test system: SNB-19 CNS
[42] = test system: SNB-75 CNS
[43] = test system: SW-620 colon
[44] = test system: T-47D breast
[45] = test system: TK-10 renal
[46] = test system: U251 CNS
[47] = test system: UACC-257 melanoma
[48] = test system: UACC-62 melanoma

## C#Cc1nc(/C=C/CCCCCCC(=O)NO)cs1
[1]
  GI50: 6.72 µM
  TGI: 47.7 µM
[2]
  GI50: 3.7 µM
  TGI: 16.8 µM
[3]
  GI50: 6.23 µM
  TGI: > 100 µM
[4]
  GI50: 4.05 µM
  TGI: 49.5 µM
[5]
  GI50: 4.73 µM
  TGI: 18 µM
[6]
  GI50: 3.01 µM
  TGI: > 100 µM
[7]
  GI50: 22.7 µM
  TGI: > 100 µM
[8]
  GI50: 11.6 µM
  TGI: 36.9 µM
[9]
  GI50: 2.7 µM
  TGI: 10.5 µM
[10]
  GI50: 7.53 µM
  TGI: > 100 µM
[11]
  GI50: 5.47 µM
  TGI: 58.7 µM
[12]
  GI50: 1.18 µM
  TGI: 2.76 µM
[13]
  GI50: 3.59 µM
  TGI: 76.3 µM
[14]
  GI50: 4.26 µM
  TGI: 31.4 µM
[15]
  GI50: 1.63 µM
  TGI: 3.38 µM
[16]
  GI50: 2.95 µM
  TGI: > 100 µM
[17]
  GI50: 5.32 µM
  TGI: 42.6 µM
[18]
  GI50: 0.185 µM
  TGI: 0.352 µM
[19]
  GI50: 5.18 µM
  TGI: 61.4 µM
[20]
  GI50: 1.53 µM
  TGI: 3.12 µM
[21]
  GI50: 5.03 µM
  TGI: > 100 µM
[22]
  GI50: 2.25 µM
  TGI: 5.13 µM
[23]
  GI50: 5.67 µM
  TGI: > 100 µM
[24]
  GI50: 13.3 µM
  TGI: 53.6 µM
[25]
  GI50: 4.16 µM
  TGI: > 100 µM
[26]
  GI50: 3.05 µM
  TGI: 17.9 µM
[27]
  GI50: 2.15 µM
  TGI: 13.6 µM
[28]
  GI50: 2.31 µM
  TGI: 6.34 µM
[29]
  GI50: 3.07 µM
  TGI: > 100 µM
[30]
  GI50: 3.45 µM
  TGI: > 100 µM
[31]
  GI50: 5.27 µM
  TGI: > 100 µM
[32]
  GI50: 1.41 µM
  TGI: 5.21 µM
[33]
  GI50: 3.89 µM
  TGI: 14.9 µM
[34]
  GI50: 5.52 µM
  TGI: 19.3 µM
[35]
  GI50: 1.59 µM
  TGI: 3.05 µM
[36]
  GI50: 20.6 µM
  TGI: 85.5 µM
[37]
  GI50: 9.61 µM
  TGI: 94.7 µM
[38]
  GI50: 4.81 µM
  TGI: 17.4 µM
[39]
  GI50: 5.12 µM
  TGI: 28.3 µM
[40]
  GI50: 7.84 µM
  TGI: > 100 µM
[41]
  GI50: 16 µM
  TGI: > 100 µM
[42]
  GI50: 1.74 µM
  TGI: 9.61 µM
[43]
  GI50: 2.14 µM
  TGI: 4.9 µM
[44]
  GI50: 3.08 µM
  TGI: 33.8 µM
[45]
  GI50: 2.29 µM
  TGI: 16.3 µM
[46]
  GI50: 3.47 µM
  TGI: 18.6 µM
[47]
  GI50: 3.39 µM
  TGI: > 100 µM
[48]
  GI50: 3.1 µM
  TGI: 15 µM
